Assay [1] has as its system EPO-induced JAK2 signal pathway. The experiment in a line: EPO-induced proliferation of UT-7 cells (JAK2 signal). Conditions: Homo sapiens, UT7; UT-7 cell proliferation, EPO 10 ng/mL, 72 hours; read-out: Inhibition activity IC50 on EPO-induced JAK2 signal pathway. Type of assay: cell-based, human. An outline of the steps:
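UT-7 cells (15000/well) stimulated with 10 ng/mL human recombinant EPO plus compound at final 0, 100, 1000 or 10000 nM, 72 h at 37° C., 5% CO2. Proliferation by alamarBlue fluorescence (Ex530/Em590); inhibition normalised to no-cytokine/no-compound (0) and EPO-only (100) wells, […] derived from dose-inhibition.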

The test system of assay [2] is IL-2-induced JAK1/JAK3 signal pathway. The experiment in a line: IL-2-induced proliferation of KHYG-1 cells (JAK1/JAK3 signal). The assay is classed as cell-based, human. The following applies: Homo sapiens; KHYG-1 cell proliferation, IL-2 10 ng/mL, 72 hours; read-out: Inhibition activity IC50 on IL-2-induced JAK1/JAK3 signal pathway. The procedure, abridged: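 KHYG-1 NK lymphoma cells were cultured with IL-2 and test compound at various doses for 72 h at 37 °C and 5% CO2, and proliferation was read with alamarBlue fluorescence. Inhibition was normalized to wells without compound or cytokine (0%) and IL-2 wells without compound (100%), and C50 was derived from the dose-inhibition data.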

Turning to `CCONC(=O)c1cnc(NC(=O)C2CC2)cc1Nc1cc(C)c(C2CC2)cc1N(C)S(C)(=O)=O` [Example 120, 6-(cyclopropylcarboxamido)-4-((4-cyclopropyl-5-methyl-2-(N-methylmethanesulfonamido)phenyl)amino)-N-ethoxy nicotinamide], the IC50 in assay [1] and in assay [2] was over 10 µM in each case.

For the compound `CCONC(=O)c1cnc(Nc2cc(C)nc(C)n2)cc1Nc1cc(C)c(C2CC2)cc1N(C)S(C)(=O)=O` [Example 121], the IC50 in assay [1] and in assay [2] was over 10 µM in each case.

In the case of `CCONC(=O)c1cnc(Nc2ccc(CO)cn2)cc1Nc1ccc(C2CC2)cc1N(C)S(C)(=O)=O` [Example 122, 4-((4-cyclopropyl-2-(N-methylmethanesulfonamido)phenyl)amino)-N-ethoxy-6-((5-(hydroxymethyl)pyridin-2-yl)amino)nicotinamide], the IC50 in assay [1] and in assay [2] was over 10 µM each time.

Turning to `CCONC(=O)c1cnc(Nc2nc(C)cc(C)n2)cc1Nc1ccc(C2CC2)cc1N(C)S(C)(=O)=O` [Example 123, 4-((4-cyclopropyl-2-(N-methylmethanesulfonamido)phenyl)amino)-6-((4,6-dimethylpyrimidin-2-yl)amino)-N-ethoxy nicotinamide], the IC50 in assay [1] and in assay [2] was over 10 µM in each case.

On to `CCONC(=O)c1cnc(Nc2ncccn2)cc1Nc1ccc(C2CC2)cc1N(C)S(C)(=O)=O` [Example 124, 4-((4-cyclopropyl-2-(N-methylmethanesulfonamido)phenyl)amino)-N-ethoxy-6-(pyrimidin-2-ylamino)nicotinamide], for which the IC50 in assay [1] and in assay [2] was over 10 µM throughout.

In the case of `CCONC(=O)c1cnc(Nc2ccnn2C)cc1Nc1ccc(N2CCOCC2)cc1N(C)S(C)(=O)=O` [Example 135], the IC50 in assay [1] and in assay [2] was over 10 µM throughout.

As to `CCONC(=O)c1cnc(Nc2ccn(C)n2)cc1Nc1ccc(N2CCOCC2)cc1N(C)S(C)(=O)=O` [Example 137], the IC50 in assay [1] and in assay [2] was over 10 µM in each case.

As for `CCONC(=O)c1cnc(Nc2cnn(C)c2)cc1Nc1ccc(C2CC2)cc1N(C)S(C)(=O)=O` [Example 140, 4-((4-cyclopropyl-2-(N-methylmethanesulfonamido)phenyl)amino)-N-ethoxy-6-((1-methyl-1H-pyrazol-4-yl)amino)nicotinamide], the IC50 in assay [1] and in assay [2] was over 10 µM each time.

As for `CCONC(=O)c1cnc(Nc2cc(C)ccn2)cc1Nc1ccc(C2CC2)cc1N(C)S(C)(=O)=O` [Example 147, 4-((4-cyclopropyl-2-(N-methylmethanesulfonamido)phenyl)amino)-N-ethoxy-6-((4-methylpyridin-2-yl)amino)nicotinamide], the IC50 in assay [1] and in assay [2] was over 10 µM throughout.

With `CCONC(=O)c1cnc(Nc2ccc(C)nc2)cc1Nc1ccc(C2CC2)cc1N(C)S(C)(=O)=O` [Example 148, 4-((4-cyclopropyl-2-(N-methylmethanesulfonamido)phenyl)amino)-N-ethoxy-6-((6-methylpyridin-3-yl)amino)nicotinamide], the IC50 in assay [1] and in assay [2] was over 10 µM throughout.

In the case of `CCONC(=O)c1cnc(Nc2cc(C)nc(C)n2)cc1Nc1cc(Cl)c(C2CC2)cc1N(C)S(C)(=O)=O` [Example 149], the IC50 in assay [1] and in assay [2] was over 10 µM in each case.

Consider `CCONC(=O)c1cnc(NC(=O)C2CC2)cc1Nc1cc(Cl)c(C2CC2)cc1N(C)S(C)(=O)=O` [Example 150, 4-((5-chloro-4-cyclopropyl-2-(N-methylmethanesulfonamido)phenyl)amino)-6-(cyclopropylcarboxamido)-N-ethoxy nicotinamide], for which the IC50 in assay [1] and in assay [2] was over 10 µM in each case.

As for `CCONC(=O)c1cnc(Nc2ccc(C3CC3)cn2)cc1Nc1ccc(Cl)cc1N(C)S(C)(=O)=O` [Example 152, 4-((4-chloro-2-(N-methylmethanesulfonamido)phenyl)amino)-6-((5-cyclopropylpyridin-2-yl)amino)-N-ethoxy nicotinamide], the IC50 in assay [1] and in assay [2] was over 10 µM each time.

On to `CCONC(=O)c1cnc(Nc2nccs2)cc1Nc1ccc(C2CC2)cc1N(C)S(C)(=O)=O` [Example 158, 4-((4-cyclopropyl-2-(N-methylmethanesulfonamido)phenyl)amino)-N-ethoxy-6-(thiazol-2-ylamino)nicotinamide], for which the IC50 in assay [1] and in assay [2] was over 10 µM throughout.

Regarding `CCONC(=O)c1cnc(Nc2ccnn2C)cc1Nc1ccc(C2CC2)cc1N(C)S(C)(=O)=O` [Example 161, 4-((4-cyclopropyl-2-(N-methylmethanesulfonamido)phenyl)amino)-N-ethoxy-6-((1-methyl-1H-pyrazol-5-yl)amino)nicotinamide], the IC50 in assay [1] and in assay [2] was over 10 µM each time.

On to `C#Cc1ccc(Nc2cc(Nc3ncccn3)ncc2C(=O)NOCC)c(N(C)S(C)(=O)=O)c1` [Example 163, N-ethoxy-4-((4-ethynyl-2-(N-methylmethanesulfonamido)phenyl)amino)-6-(pyrimidin-2-ylamino)nicotinamide], for which the IC50 in assay [1] and in assay [2] was over 10 µM throughout.

As to `C#Cc1ccc(Nc2cc(Nc3nc(C)cc(C)n3)ncc2C(=O)NOCC)c(N(C)S(C)(=O)=O)c1` [Example 164, 6-((4,6-dimethylpyrimidin-2-yl)amino)-N-ethoxy-4-((4-ethynyl-2-(N-methylmethanesulfonamido)phenyl)amino)nicotinamide], the IC50 in assay [1] and in assay [2] was over 10 µM in each case.

For the compound `CCONC(=O)c1cnc(Nc2nc(C)cs2)cc1Nc1ccc(C)cc1N(C)S(C)(=O)=O` [Example 165, N-ethoxy-4-((4-methyl-2-(N-methylmethanesulfonamido)phenyl)amino)-6-((4-methylthiazol-2-yl)amino)nicotinamide], the IC50 in assay [1] and in assay [2] was over 10 µM each time.

Take `CCONC(=O)c1cnc(Nc2ccnn2C)cc1Nc1cc(F)c(C2CC2)cc1N(C)S(C)(=O)=O` [Example 168, 4-((4-cyclopropyl-5-fluoro-2-(N-methylmethanesulfonamido)phenyl)amino)-N-ethoxy-6-((1-methyl-1H-pyrazol-5-yl)amino)nicotinamide]: the IC50 in assay [1] and in assay [2] was over 10 µM throughout.

On to `CCONC(=O)c1cnc(Nc2ncccn2)cc1Nc1cc(F)c(C2CC2)cc1N(C)S(C)(=O)=O` [Example 169, 4-((4-cyclopropyl-5-fluoro-2-(N-methylmethanesulfonamido)phenyl)amino)-N-ethoxy-6-(pyrimidin-2-ylamino)nicotinamide], for which the IC50 in assay [1] and in assay [2] was over 10 µM throughout.

On to `CCONC(=O)c1cnc(Nc2ncc(C)s2)cc1Nc1ccc(OC)cc1N(C)S(C)(=O)=O` [Example 172, N-ethoxy-4-((4-methoxy-2-(N-methylmethanesulfonamido)phenyl)amino)-6-(5-methylthiazol-2-ylamino)nicotinamide], for which the IC50 in assay [1] and in assay [2] was over 10 µM in each case.

For `CCONC(=O)c1cnc(Nc2cc(C)nc(C)n2)cc1Nc1ccc(Cl)cc1N(C)S(=O)(=O)C1CC1` [Example 184], the IC50 in assay [1] and in assay [2] was over 10 µM in each case.

`CCONC(=O)c1cnc(Nc2cc(C)nc(C)c2)cc1Nc1ccc(C2CC2)cc1N(C)S(C)(=O)=O` [Example 221]: the IC50 in assay [1] and in assay [2] was over 10 µM throughout.

On to `CCONC(=O)c1cnc(Nc2ncc(F)cc2F)cc1Nc1cc(F)c(C(C)C)cc1N(C)S(C)(=O)=O` [Example 228, 6-((3,5-difluoropyridin-2-yl)amino)-N-ethoxy-4-((5-fluoro-4-isopropyl-2-(N-methylmethanesulfonamido)phenyl)amino)nicotinamide], for which the IC50 in assay [1] and in assay [2] was over 10 µM each time.

For `CCONC(=O)c1nnc(Nc2cc(C)nc(C)n2)cc1Nc1cccc(-c2ncc(C)cn2)c1OC` [Example 276, 6-((2,6-dimethylpyrimidin-4-yl)amino)-N-ethoxy-4-((2-methoxy-3-(5-methylpyrimidin-2-yl)phenyl)amino)pyridazine-3-carboxamide], the IC50 in assay [1] and in assay [2] was over 10 µM throughout.

These data come from patent publication US20240101548A1, “HYDROXAMATE COMPOUND, PREPARATION METHOD THEREFOR AND APPLICATION THEREOF” (SHENZHEN CHIPSCREEN BIOSCIENCES CO., LTD., priority 2020, published 2024).
